Test results: patent US20090176742A1, “METHODS RELATING TO THE TREATMENT OF FIBROTIC DISORDERS” (UNIVERSITY OF WASHINGTON, priority 2005, published 2009)

What was measured:
[1] = system: TCF/β-catenin transcription; test: Bat-Gal transgenic mice given intratracheal bleomycin; lung sections stained with X-Gal (reporter for TCF/β-catenin transcription); assay type: in vivo; settings: ICG-001 5 mg/Kg/day via minipump (subcutaneously)
Protocol: FIG. 14. FIG. 14A-C depicts lung sections taken from Bat-Gal transgenic mice given intratracheal saline or bleomycin and either treated with ICG-001 (5 mgs/Kg/day subcutaneously) or saline as vehicle control. The lungs were sectioned and stained with X-Gal (blue color.) FIG. 14A, intratracheal bleo+saline; FIG. 14B, intracheal bleo+ICG-001; FIG. 14C, saline+saline.
Using this murine model of pulmonary fibrosis in transgenic Bat-Gal mice, ICG-001 5 mg/Kg/day, administered via minipump) blocked >95% of bleomycin-induced TCF/β-catenin transcription.
These mice have a Beta-Galactosidase transgene driven by a TCF/Catenin driven promoter (i.e. a read out for activated Wnt/catenin signaling). The mice were given intratracheal saline or bleomycin and either treated with ICG-001 (5 mgs/Kg/day subcutaneously) or saline as vehicle control. The mice were sacrificed and the lungs sectioned and stained with X-Gal (blue color) A) intratracheal bleo+saline. B) intracheal bleo+ICG-001 C) saline+saline.
The dose was selected because ICG-001 reduces TCF/β-Catenin driven β-Galactosidase expression >95% at 5 mgs/Kg/day.

[2] = system: C57/B16 mice treated with intratracheal bleomycin; test: Murine model of bleomycin induced pulmonary fibrosis; lung sections stained with trichrome for collagen, plus body weight and survival; assay type: in vivo
From the text: FIG. 15. FIG. 15 depicts lung sections taken from C57/B16 mice treated with intratracheal bleomycin (lower left) or saline (upper left) for 5 days and stained with trichrome ([…]) to stain collagen.
Murine models of bleomycin induced fibrosis have been developed in order to study […] disease progression.
There is an absence of airway epithelium in lower left compared to upper left (see arrow heads) and extensive collagen deposition (lower left). […] Of interest is the upper right (saline treatment) showing lack of normal airway epithelialization, extensive collagen deposition and intra-airway hypercellularity (fibroblasts and inflammatory influx).
The procedures were performed using the animal model as described in Example 2 (FIG. 15), and the sectioned lungs were stained for collagen.

S100A4 = test: RT-PCR for S100A4 in bleomycin treated mice; assay type: in vivo; settings: ICG-001 5 mgs/Kg/day s.c.
From the text: (§1) FIGS. 16 and 17 show RT-PCR data for S100A4 (FIG. 16) and collagen1A2 (FIG. 17), which are increased in the bleomycin treated mice (treated with saline control).

collagen1A2 = test: RT-PCR for collagen1A2 in bleomycin treated mice; assay type: in vivo; settings: ICG-001 5 mgs/Kg/day s.c.
From the text: as §1

[3] = system: S100A4 (FSP-1, fibroblast specific protein-1); test: Western blot for S100A4 on whole cell lysates of cultured IPF fibroblasts; assay type: cell-based, human
Protocol: (§2) FIG. 20. FIG. 20 depicts a Western blots for S100A4 (also know as FSP-1 or fibroblast specific protein-1) and E-Cadherin performed on whole cell lysates of IPF patient fibroblasts cultured in RPMI1640+10% FBS for 2 days and treated with ICG-001.
(§3) Western blots for S100A4 (also know as FSP-1 or fibroblast specific protein-1) and E-Cadherin were performed on whole cell lysates (FIG. 20).

E-Cadherin = test: Western blot for E-Cadherin on whole cell lysates of cultured IPF patient fibroblasts; assay type: cell-based, human
Protocol: as §2, §3

Aquaporin 5 = Aquaporin 5 immunostaining of lung tissue in the bleomycin mouse model; assay type: in vivo, mice; settings: bleomycin and ICG-001 versus bleomycin alone
From the text: FIG. 22. […] Bleomycin alone, FIG. 22A; bleomycin and ICG-001, FIG. 22B; saline FIG. 22C.
The aquaporins are water channels expressed in a variety of cell types. Aquaporin 5 is involved in the transportation of water across the apical surface of the alveolar epithelium and the epithelia of the submucosal glands in the upper airway and nasopharynx. (Krane, C. M., P.N.A.S. 98:14192-4, 2001; Yang, F. J. Biol. Chem. 278:32173-80, 2003). Because aquaporin 5 is a marker of Type 1 (differentiated) lung epithelium, its expression was assayed in lung tissue created with bleomycin (FIG. 22A), bleomycin and ICG-001 (FIG. 22B), and saline (FIG. 22C), using the animal model as described in Example 2 (FIG. 15), and immunostaining with an antibody specific for Aquaporin 5.

[4] = bleomycin and ICG-001 versus bleomycin
[5] = bleomycin for 5 days, then ICG-001 5 mgs/Kg/day for 10 days from the sixth day
[6] = IPF patient fibroblasts cultured for 2 days

O=C1[C@H](Cc2ccc(O)cc2)N2C(=O)CCN(C(=O)NCc3ccccc3)[C@H]2CN1Cc1cccc2ccccc12 [ICG-001]
bleomycin-induced TCF/β-catenin transcription (TCF/β-Catenin driven β-Galactosidase expression) blocked/reduced [1]: > 95%
alveolar fibrosis (lung sections stained for collagen) [2, 4]: prevented
interstitial fibrosis (lung sections stained for collagen) [2, 4]: prevented
body weight ([2]; bleomycin for 5 days, then ICG-001 5 mgs/Kg/day for 10 days): regained normal body weight
airway appearance in trichrome-stained lung sections [2, 5]: the airway looks essentially normal
collagen levels (trichrome stain) [2, 5]: normal collagen levels
survival ([2]; bleomycin for 5 days, then ICG-001 5 mgs/Kg/day for 10 days, untreated controls did not survive): survived
fibrosis over the 25 days of treatment ([2]; bleomycin mouse model, 25 days of treatment): reversed fibrosis
disease progression, as judged by reduced mortality, histopathology and endogenous gene expression ([2]; bleomycin murine model, 5 mg/Kg/day): not only halted but reversed disease progression
S100A4 message (RT-PCR) (S100A4): reduced essentially to negative control
collagen1A2 message (RT-PCR) (collagen1A2): reduced essentially to negative control
S100A4 expression (whole cell lysates) ([3]; ATCC IPF cells cultured in RPMI1640+10% FBS for 2 days): decreased
S100A4 expression at the mRNA level ([3]; IPF patient fibroblasts): also true at the mRNA level
S100A4 expression (Western blot, whole cell lysates) [3, 6]: decreased
E-cadherin expression at the mRNA level (E-Cadherin; IPF patient fibroblasts): also true at the mRNA level
E-cadherin expression (Western blot, whole cell lysates) (E-Cadherin; [6]): increased
aquaporin 5 expression (immunostaining, marker of Type 1 lung epithelium) (Aquaporin 5): greatly increased
